Reference: patent US20090105305A1, “Therapeutic Agents - 550” (AstraZeneca AB, priority 2006, published 2009)

Target: T1, human Fatty Acid Synthase (Homo sapiens, UniProt P49327)
T1 construct: made in house
Test: Human FAS enzyme assay (decrease in NADPH fluorescence)
Assay type: biochemical
Details: % inhibition at a concentration of 100 micromolar
In short: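 Readout: decrease in NADPH fluorescence (340 nm ex, 460 nm em) after 60 min at RT, background-subtracted against a read taken before substrate. Substrate mix contained 500 μM malonyl-CoA and 150 μM acetyl-CoA. It was added after 15 min enzyme (0.4 μg in-house human FAS)–compound–NADPH preincubation in Tris pH 7.5 buffer; % inhibition was fitted to IC50.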

T1 sequence (P49327 whole entry): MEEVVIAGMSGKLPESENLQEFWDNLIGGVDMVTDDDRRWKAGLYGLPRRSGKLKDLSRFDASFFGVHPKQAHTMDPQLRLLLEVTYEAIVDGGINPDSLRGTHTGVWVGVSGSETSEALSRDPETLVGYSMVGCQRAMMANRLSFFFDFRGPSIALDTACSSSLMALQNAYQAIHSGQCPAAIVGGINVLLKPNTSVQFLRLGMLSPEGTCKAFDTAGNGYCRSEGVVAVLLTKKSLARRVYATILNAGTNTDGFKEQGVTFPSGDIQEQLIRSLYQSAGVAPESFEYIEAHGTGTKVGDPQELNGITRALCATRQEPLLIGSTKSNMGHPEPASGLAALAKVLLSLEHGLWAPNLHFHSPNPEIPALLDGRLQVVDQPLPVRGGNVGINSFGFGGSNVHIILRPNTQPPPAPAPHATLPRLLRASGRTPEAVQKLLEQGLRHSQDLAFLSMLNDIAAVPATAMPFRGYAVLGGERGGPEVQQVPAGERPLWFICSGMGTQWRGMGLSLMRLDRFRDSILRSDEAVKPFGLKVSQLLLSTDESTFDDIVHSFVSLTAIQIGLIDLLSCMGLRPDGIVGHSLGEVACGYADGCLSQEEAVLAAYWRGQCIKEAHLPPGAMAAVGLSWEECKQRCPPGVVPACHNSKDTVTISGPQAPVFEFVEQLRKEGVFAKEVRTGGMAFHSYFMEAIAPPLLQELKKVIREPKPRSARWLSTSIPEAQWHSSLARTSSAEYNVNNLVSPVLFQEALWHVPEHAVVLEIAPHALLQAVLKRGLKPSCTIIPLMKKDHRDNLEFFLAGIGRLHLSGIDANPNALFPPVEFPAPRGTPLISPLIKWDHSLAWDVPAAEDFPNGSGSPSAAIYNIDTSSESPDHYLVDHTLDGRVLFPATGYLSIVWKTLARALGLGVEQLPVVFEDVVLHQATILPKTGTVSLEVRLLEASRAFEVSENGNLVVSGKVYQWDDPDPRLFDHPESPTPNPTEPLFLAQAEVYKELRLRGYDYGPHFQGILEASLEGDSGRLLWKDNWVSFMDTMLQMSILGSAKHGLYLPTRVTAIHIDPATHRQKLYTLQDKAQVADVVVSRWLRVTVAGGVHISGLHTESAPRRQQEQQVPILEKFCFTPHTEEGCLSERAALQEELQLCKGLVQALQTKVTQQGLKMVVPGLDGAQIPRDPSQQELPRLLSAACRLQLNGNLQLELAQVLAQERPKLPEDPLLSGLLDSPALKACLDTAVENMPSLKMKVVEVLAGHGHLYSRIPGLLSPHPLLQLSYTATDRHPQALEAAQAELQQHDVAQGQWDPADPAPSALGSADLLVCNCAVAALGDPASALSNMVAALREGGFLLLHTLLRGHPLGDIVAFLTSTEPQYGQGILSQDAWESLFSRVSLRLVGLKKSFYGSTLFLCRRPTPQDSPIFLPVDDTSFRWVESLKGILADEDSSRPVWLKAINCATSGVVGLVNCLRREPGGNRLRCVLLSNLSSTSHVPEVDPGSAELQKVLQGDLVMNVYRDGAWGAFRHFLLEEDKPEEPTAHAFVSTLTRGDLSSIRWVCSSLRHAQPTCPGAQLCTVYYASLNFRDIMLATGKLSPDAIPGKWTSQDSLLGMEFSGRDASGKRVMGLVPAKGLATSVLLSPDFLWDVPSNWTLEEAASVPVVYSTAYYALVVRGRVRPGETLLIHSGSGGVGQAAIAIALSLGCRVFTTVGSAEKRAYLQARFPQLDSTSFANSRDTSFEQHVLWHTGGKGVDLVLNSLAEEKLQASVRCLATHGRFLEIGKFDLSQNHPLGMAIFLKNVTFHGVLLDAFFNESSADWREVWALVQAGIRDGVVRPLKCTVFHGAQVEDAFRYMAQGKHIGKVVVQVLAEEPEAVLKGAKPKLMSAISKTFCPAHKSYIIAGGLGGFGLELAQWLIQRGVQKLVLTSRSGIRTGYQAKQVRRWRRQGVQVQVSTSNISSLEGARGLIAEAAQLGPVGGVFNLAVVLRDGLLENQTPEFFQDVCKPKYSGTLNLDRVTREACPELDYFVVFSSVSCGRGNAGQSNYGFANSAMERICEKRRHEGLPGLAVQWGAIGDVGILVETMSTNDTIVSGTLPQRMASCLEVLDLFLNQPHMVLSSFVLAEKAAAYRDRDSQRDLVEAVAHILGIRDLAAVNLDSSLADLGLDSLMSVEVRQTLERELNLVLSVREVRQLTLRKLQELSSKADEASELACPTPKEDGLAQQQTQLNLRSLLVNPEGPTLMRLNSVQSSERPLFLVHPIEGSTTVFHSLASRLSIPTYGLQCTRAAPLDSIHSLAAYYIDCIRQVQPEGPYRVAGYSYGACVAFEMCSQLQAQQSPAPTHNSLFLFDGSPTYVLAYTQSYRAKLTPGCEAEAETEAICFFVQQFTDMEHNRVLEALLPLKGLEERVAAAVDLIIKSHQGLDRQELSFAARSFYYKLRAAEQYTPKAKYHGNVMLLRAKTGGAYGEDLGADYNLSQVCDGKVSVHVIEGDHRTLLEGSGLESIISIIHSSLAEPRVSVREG

Compound	inhibition at 100 µM [%]
Cc1ccc(C(=O)N2CCC(c3ccc(C(F)(F)F)cc3)CC2)cc1NS(=O)(=O)C1CCS(=O)(=O)C1 (stereo not drawn) [Example 177, N-[2-methyl-5-[4-[4-(trifluoromethyl)phenyl]piperidine-1-carbonyl]phenyl]-1,1-dioxothiolane-3-sulfonamide]	91
N#Cc1ccc(C2CCN(C(=O)c3ccc(Cl)c(NS(=O)(=O)c4ccccc4F)c3)CC2)cc1 [Example 191, N-[2-chloro-5-[4-(4-cyanophenyl)piperidine-1-carbonyl]phenyl]-2-fluorobenzenesulfonamide]	63
N#Cc1ccc(C2CCN(C(=O)c3ccc(Cl)c(NS(=O)(=O)c4ccc(Cl)cc4)c3)CC2)cc1 [Example 192, 4-chloro-N-[2-chloro-5-[4-(4-cyanophenyl)piperidine-1-carbonyl]phenyl]benzene-sulfonamide]	67
N#Cc1ccc(C2CCN(C(=O)c3ccc(F)c(NS(=O)(=O)Cc4ccccc4)c3)CC2)cc1 [Example 194, N-[5-[4-(4-cyanophenyl)piperidine-1-carbonyl]-2-fluorophenyl]-1-phenylmethane-sulfonamide]	69
N#Cc1ccc(C2CCN(C(=O)c3ccc(C#N)c(NS(=O)(=O)Cc4ccccc4)c3)CC2)cc1 [Example 196, N-[2-cyano-5-[4-(4-cyanophenyl)piperidine-1-carbonyl]phenyl]-1-phenylmethane-sulfonamide]	96
COc1ccc(NS(C)(=O)=O)cc1C(=O)N1CCC(c2ccc(C#N)cc2)CC1 [Example 197, N-[3-[4-(4-cyanophenyl)piperidine-1-carbonyl]-4-methoxyphenyl]methanesulfonamide]	71
CCCCOc1ccc(S(=O)(=O)Nc2ccc(C)c(C(=O)N3CCC(c4ccc(C#N)cc4)CC3)c2)cc1 [Example 198, 4-butoxy-N-[3-[4-(4-cyanophenyl)piperidine-1-carbonyl]-4-methylphenyl]benzene-sulfonamide]	71
N#Cc1ccc(C2CCN(C(=O)c3cc(NS(=O)(=O)Cc4ccccc4)ccc3F)CC2)cc1 [Example 199, N-[3-[4-(4-cyanophenyl)piperidine-1-carbonyl]-4-fluorophenyl]-1-phenylmethane-sulfonamide]	79
Cc1ccc(C(=O)N2CCC(O)(c3ccc(Br)cc3)CC2)cc1NS(C)(=O)=O [Example 200, N-[5-[4-(4-bromophenyl)-4-hydroxypiperidine-1-carbonyl]-2-methylphenyl]methane-sulfonamide]	48
Cc1ccc(C(=O)N2CCC(O)(c3ccc(Br)cc3)CC2)cc1NS(=O)(=O)Cc1ccccc1 [Example 201, N-[5-[4-(4-bromophenyl)-4-hydroxypiperidine-1-carbonyl]-2-methylphenyl]-1-phenylmethanesulfonamide]	68
Cc1ccc(C(=O)N2CCC(c3ccc(C#N)cc3)CC2)cc1NS(=O)(=O)CCc1ccccc1 [Example 202, N-[5-[4-(4-cyanophenyl)piperidine-1-carbonyl]-2-methylphenyl]-2-phenylethanesulfonamide]	90
CS(=O)(=O)Nc1cccc(C(=O)N2CCC(c3ccc(C#N)cc3)CC2)c1 [Example 203, N-[3-[4-(4-cyanophenyl)piperidine-1-carbonyl]phenyl]methanesulfonamide]	71
Cc1ccc(C(=O)N2CCC(c3ccc(C(=O)N(C)C)cc3)CC2)cc1NS(=O)(=O)Cc1ccccc1 [Example 204, 4-[1-[3-(benzylsulfonylamino)-4-methylbenzoyl]piperidin-4-yl]-N,N-dimethylbenzamide]	78
Cc1ccc(C(=O)N2CCC(c3ccc(C#N)cc3)CC2)cc1NS(=O)(=O)c1ccccc1C(=O)N(C)C [Example 206, 2-[[5-[4-(4-cyanophenyl)piperidine-1-carbonyl]-2-methylphenyl]sulfamoyl]-N,N-dimethylbenzamide]	76
Cc1ccc(C(=O)N2CCC(c3ccc(C#N)cc3)CC2)cc1NS(=O)(=O)c1ccccc1C(=O)NCCO [Example 207, 2-[[5-[4-(4-cyanophenyl)piperidine-1-carbonyl]-2-methylphenyl]sulfamoyl]-N-(2-hydroxyethyl)benzamide]	75

Next, values leading:

inhibition at 100 µM [%]	Compound
85	C#Cc1ccc(C2CCN(C(=O)c3ccc(C)c(NS(C)(=O)=O)c3)CC2)cc1 [Example 172, N-[5-[4-(4-ethynylphenyl)piperidine-1-carbonyl]-2-methylphenyl]methanesulfonamide]
64	Cc1ccc(C(=O)N2CCC(c3ccc(-c4ccccn4)cc3)CC2)cc1NS(C)(=O)=O [Example 173, N-[2-methyl-5-[4-(4-pyridin-2-ylphenyl)piperidine-1-carbonyl]phenyl]methanesulfonamide]
92	Cc1ccc(C(=O)N2CCC(c3ccc(-c4cnccn4)cc3)CC2)cc1NS(C)(=O)=O [Example 174, N-[2-methyl-5-[4-(4-pyrazin-2-ylphenyl)piperidine-1-carbonyl]phenyl]methanesulfonamide]
71	Cc1ccc(C(=O)N2CCC(c3ccc(-c4ccccc4)cc3)CC2)cc1NS(C)(=O)=O [Example 175, N-[2-methyl-5-[4-(4-phenylphenyl)piperidine-1-carbonyl]phenyl]methanesulfonamide]
78	CSCc1ccc(C(=O)N2CCC(c3ccc(C#N)cc3)CC2)cc1NS(C)(=O)=O [Example 176, N-[5-[4-(4-cyanophenyl)piperidine-1-carbonyl]-2-(methylsulfanylmethyl)phenyl]methanesulfonamide]
81	COc1cc(C2CCN(C(=O)c3ccc(C)c(NS(C)(=O)=O)c3)CC2)ccc1C#N [Example 178, N-[5-[4-(4-cyano-3-methoxyphenyl)piperidine-1-carbonyl]-2-methylphenyl]methanesulfonamide]
85	Cc1ccc(C(=O)N2CCC(c3ccc(C#N)c(F)c3)CC2)cc1NS(C)(=O)=O [Example 179, N-[5-[4-(4-cyano-3-fluorophenyl)piperidine-1-carbonyl]-2-methylphenyl]methanesulfonamide]
96	Cc1ccc(C(=O)N2CCC(c3ccc(OC(F)(F)F)cc3)CC2)cc1NS(C)(=O)=O [Example 180, N-[2-methyl-5-[4-[4-(trifluoromethoxy)phenyl]piperidine-1-carbonyl]phenyl]methanesulfonamide]
100	Cc1ccc(C(=O)N2CCC(c3ccc(OCC#N)cc3)CC2)cc1NS(C)(=O)=O [Example 181, N-[5-[4-[4-(cyanomethoxy)phenyl]piperidine-1-carbonyl]-2-methylphenyl]methanesulfonamide]
80	Cc1ccc(C(=O)N2CCC(c3ccc([S+](C)[O-])cc3)CC2)cc1NS(C)(=O)=O (stereo not drawn) [Example 182, N-[2-methyl-5-[4-(4-methylsulfinylphenyl)piperidine-1-carbonyl]phenyl]methanesulfonamide]
90	CNS(=O)(=O)c1ccc(C2CCN(C(=O)c3ccc(C)c(NS(C)(=O)=O)c3)CC2)cc1 [Example 183, 4-[1-(3-methanesulfonamido-4-methylbenzoyl)piperidin-4-yl]-N-methylbenzenesulfonamide]
84	Cc1ccc(C(=O)N2CCC(c3ccc(C(=O)NC4CC4)cc3)CC2)cc1NS(C)(=O)=O [Example 184, N-cyclopropyl-4-[1-(3-methanesulfonamido-4-methylbenzoyl)piperidin-4-yl]benzamide]
80	Cc1ccc(C(=O)N2CCC(c3ccc(OS(C)(=O)=O)cc3)CC2)cc1NS(C)(=O)=O [Example 185, [4-[1-(3-methanesulfonamido-4-methylbenzoyl)piperidin-4-yl]phenyl]methanesulfonate]
99	Cc1ccc(C(=O)N2CCC(c3ccc(S(N)(=O)=O)cc3)CC2)cc1NS(C)(=O)=O [Example 186, 4-[1-(3-methanesulfonamido-4-methylbenzoyl)piperidin-4-yl]benzenesulfonamide]
100	Cc1ccc(C(=O)N2CCC(c3ccc(Oc4ccccn4)cc3)CC2)cc1NS(C)(=O)=O [Example 187, N-[2-methyl-5-[4-(4-pyridin-2-yloxyphenyl)piperidine-1-carbonyl]phenyl]methanesulfonamide]
110	Cc1ccc(C(=O)N2CCC(c3ccc(C(=O)c4nccs4)cc3)CC2)cc1NS(C)(=O)=O [Example 188, N-[2-methyl-5-[4-[4-(1,3-thiazole-2-carbonyl)phenyl]piperidine-1-carbonyl]phenyl]methanesulfonamide]
88	Cc1ccc(C(=O)N2CCC(c3ccc(Oc4nccc(C(F)(F)F)n4)cc3)CC2)cc1NS(C)(=O)=O [Example 189, N-[2-methyl-5-[4-[4-[4-(trifluoromethyl)pyrimidin-2-yl]oxyphenyl]piperidine-1-carbonyl]phenyl]methanesulfonamide]
88	Cc1ccc(C(=O)N2CCC(c3ccc(Oc4ncccn4)cc3)CC2)cc1NS(C)(=O)=O [Example 190, N-[2-methyl-5-[4-(4-pyrimidin-2-yloxyphenyl)piperidine-1-carbonyl]phenyl]methanesulfonamide]
70	Cc1ccc(C(=O)N2CCC(c3ccc(S(C)(=O)=O)cc3)CC2)cc1NS(=O)(=O)Cc1ccccc1 [Example 193, N-[2-methyl-5-[4-(4-methylsulfonylphenyl)piperidine-1-carbonyl]phenyl]-1-phenyl-methanesulfonamide]
72	Cc1ccc(C(=O)N2CCC(c3ccc(C#N)cc3)CC2)cc1NS(=O)(=O)CS(C)(=O)=O [Example 195, N-[5-[4-(4-cyanophenyl)piperidine-1-carbonyl]-2-methylphenyl]-1-methylsulfonyl-methanesulfonamide]
75	Cc1ccc(C(=O)N2CCC(c3ccc(C#N)cc3)CC2)cc1NS(=O)(=O)CCCO [Example 205, N-[5-[4-(4-cyanophenyl)piperidine-1-carbonyl]-2-methylphenyl]-3-hydroxypropane-1-sulfonamide]
